{"source": "paper PMC5761851", "about": "“Application of a phenotypic drug discovery strategy to identify biological and chemical starting points for inhibition of TSLP production in lung epithelial cells” (PLoS ONE, 2018)", "assay_type_in_all_cases": "cell-based, human", "key": {"[1]": {"tested_on": "TSLP production in NHBE cells", "assay": "TSLP HTRF assay (TSLP production in poly I:C / IL-4 stimulated NHBE cells)", "conditions": "4 μM; NHBE donor #1; average ± SD", "experimental": "For dose response curves determinations, stocks of test compounds at a concentration of 1.33x10^-3 M in DMSO were sequentially diluted at 1:4 dilution steps before further 1/50 dilution in BEBM medium containing 1x ITS and 0.1% BSA. For the highest 4 μM concentration test compounds were resuspended in DMSO at a concentration of 2.5x10^-3 M and diluted 1/25 in BEBM medium containing 1x ITS and 0.1% BSA before adding 1 μl to the wells containing the cells.\nAll subsequent steps were automated using a Sciclone® G3 workstation (Perkin Elmer) with a Twister™ II robot (Perkin Elmer). […] 1 μl of test compound solution prepared at 25x concentration was added to the wells containing NHBE cells. The plates were then incubated during 90 minutes at 37°C, 5% CO2, 90% humidity before adding poly I:C (Invivogen HMW Tirl-pic-5) and human IL-4 (Peprotech 200–04) stimulus in 4 μl of BEBM medium containing 1x ITS, 0.1% BSA and 0.1% DMSO using a Multidrop™. […] Cells were then incubated for 24h in the presence of test compounds and stimulus at 37°C, 5% CO2 and 90% humidity conditions. After the 24h incubation period the plates were transferred to a CyBi®-Well platform (CyBio AG) to collect 10 μl of the supernatants which were transferred to a new plate. TSLP levels in the supernatant were determined using a homogeneous Time-Resolved Fluorescence (HTRF) assay custom developed by Cisbio. The assay was based in the use of a donor dye (europium cryptate) coupled to a monoclonal anti-TSLP antibody and an acceptor dye (d2) coupled to a second polyclonal anti-TSLP antibody. […] 10 μl of the resulting solution was then used to determine TSLP levels as described above.\nThe standard curve was built with eight points prepared in ITS/BSA in BEBM medium without supplements, starting at 700 pg/ml and diluted 1:2, with medium alone being zero TSLP. Fitting model corresponded to equation 100 of Excel fit software. Data from the primary phenotypic screen was visualized using Vortex (Dotmatics). […] For compound selection the maximum inhibition of the two individual duplicate values was taken into account. Dose response confirmation was performed at single point in the 2 donors tested. 9 point curves were run starting at 4 μM concentration by doing serial 1:4 dilutions in cells derived from both donors."}, "[2]": {"tested_on": "TSLP production in NHBE cells", "assay": "TSLP HTRF assay (TSLP production in poly I:C / IL-4 stimulated NHBE cells)", "conditions": "individual values"}, "[3]": {"tested_on": "TSLP mRNA levels in NHBE cells", "assay": "TSLP mRNA real-time PCR (qPCR) in NHBE cells", "design": "TSLP mRNA upregulation (% versus control) / % Inhibition of mRNA: dose or concentration left out as unconfirmed"}}, "note": "Where “and” joins values, the source holds several entries; their conditions need not be identical. Equal entries are not always repeated."}
{"compound": "CC(C)N(C(=O)CN1N=C(c2ccccc2)Cn2c(cc3ccccc32)C1=O)C(C)C", "note": "[compound 1]", "values": [{"measurement": "TSLP protein upregulation (% versus control at 4 µM)", "setting": "[1]", "result": "170 ± 62", "unit": "%"}, {"measurement": "TSLP protein upregulation (% versus control at 4 µM)", "setting": "[2]", "result": "138.531% and 75.145% and 206.844% and 140.02% and 231.867% and 228.515%"}, {"measurement": "TSLP mRNA upregulation (% versus control at 4 μM)", "setting": "[3]; 4 μM, NHBE donor #1, average ± SD", "result": "452 ± 103", "unit": "%"}, {"measurement": "TSLP mRNA upregulation (% versus control)", "setting": "[3]; individual values", "result": "525.82% and 378.87%"}]}
